System: human myeloma cell line MM.1S
Assay: SILAC acetylated-lysine peptide profiling, HDAC inhibitor vs DMSO (light/heavy ratio)
Type: cell-based
From the text: An embodiment of the invention comprises utilizing the SILAC method in order to quantitate changes in protein expression between two or more populations of cells. The SILAC method is a technique based on mass spectrometry that detects differences in protein abundance among samples using non-radioactive isotopic labeling. The SILAC method is known in the art, and described in detail in Ong et al., “Stable Isotope Labeling by Amino Acids in Cell Culture, SILAC, as a Simple and Accurate Approach to Expression Proteomics”, Molecular & Cellular Proteomics, vol. 1, pp. 376-386 (2002), which is incorporated herein by reference in its entirety.
Briefly, the SILAC method involves growing two populations of cells in cell culture. The first population of cells is grown in growth media containing normal amino acids (“normal media”). The second population of cells is grown in media lacking a standard essential amino acid (such as lysine), but is then supplemented with a non-radioactive, isotopically labeled form of that essential amino acid (such as lysine labeled with ^13C atoms, rather than normal ^12C atoms), which is called “heavy media”. When the two populations of cells are each growing in the medium, they incorporate the amino acids into all of their proteins. The growth of cells maintained in the heavy media is no different from that in normal media. All peptides containing the heavy amino acids are heavier than their normal counterparts. The cells from each of the two populations of cells are lysed. The lysates from each of the two cell populations are then combined. The combined cell lysates are then analyzed by mass spectrometry. Pairs of chemically identical peptides of different stable isotope composition can be differentiated in a mass spectrometer due to their difference in mass. The ratio of peak intensities in the mass spectrum for such peptide pairs reflects the abundance ratio for the two proteins.
This example describes SILAC studies that were performed to compare the effects of three different HDAC inhibitors (Compound A, Compound B, and tubastatin A) to a control on a human multiple myeloma cell line. The HDAC inhibitors were also compared amongst themselves to determine differences in their effects.
A human myeloma cell line MM.1S was grown using either ^12C (light) or ^13C (heavy) lysine containing culture medium. The “heavy” cells were treated with DMSO as the control, and the “light” cells were treated with a single HDAC inhibitor at 37° C. for 6 hours. The heavy and light cells were lysed, and the lysates were mixed in 1:1 ratio and digested with the protease trypsin. The acetylated lysine containing peptides (due to the action of the HDAC inhibitor) in the digested peptide pool were captured by a non-specific anti-acetylated lysine antibody cocktail (the antibodies identify both light and heavy acetylated peptides), and subjected to mass spectrometry analysis in order to identify thousands of individual peptides.
Thousands of peptides were identified in pairs (^12C and ^13C) due to their known mass differences. The amino acid sequence and quantitative ratio (Light/Heavy) of a given peptide in two differentially treated cell lysates were then determined and annotated with their possible protein (gene) sources.
As stated above, three HDAC inhibitors (Compound A, Compound B, and Tubastatin A) were used. Thus, the SILAC method was performed three times, with a different HDAC inhibitor compared to a control each time. Accordingly, there are three pairs of quantitative data in the table below, i.e., Compound A:DMSO, Compound B:DMSO, and Tubastatin A:DMSO. A cut-off of 1.30 fold of change (increase or decrease) was then used to determine “changed” or “+” in the table, and any peptides with a fold of change less than 1.3 fold were determined to be “unchanged” or “0” in the table. Those peptides that were not identified were marked as “NA” in the table. […]

**Q.** How did the “L/H ratio of acetylated peptide ASGLAAGK(ac)GVIVAK (SEQ ID NO: 37)” value (GART [156], log 2 scale, drug vs DMSO) turn out when `CN1CCc2c(c3ccccc3n2Cc2ccc(C(=O)NO)cc2)C1` [Tub A] was run?
**A.** 0.46

**Q.** And the “light to heavy ratio (L/H ratio) of acetylated peptide, log 2 scale” value (GDASK(ac)EDIDTAMK (SEQ ID NO: 161), Isoform 1 of Hydroxyacyl-coenzyme A dehydrogenase mitochondrial [241], HADH)?
**A.** 0.47

**Q.** What about the “light to heavy ratio (L/H ratio) of acetylated peptide, log 2 scale” value (GDGTGGK(ac)SIYGER (SEQ ID NO: 196), Peptidyl-prolyl cis-trans isomerase B [116], PPIB) of the same molecule?
**A.** −0.54

**Q.** What about the “light to heavy ratio (L/H ratio) of acetylated peptide, log 2 scale” value (GFAFVTFDDHDSVDK(ac)IVIQK (SEQ ID NO: 165), Isoform A1-B of Heterogeneous nuclear ribonucleoprotein A1 [161], HNRNPA1) of the same molecule?
**A.** −0.53

**Q.** And the “light to heavy ratio (L/H ratio) of acetylated peptide, log 2 scale” value (GFGGK(ac)YGVER (SEQ ID NO: 162), Hematopoietic lineage cell-specific protein [123], HCLS1)?
**A.** 0.77

**Q.** And the “light to heavy ratio (L/H ratio) of acetylated peptide, log 2 scale” value (GHLENNPALEK(ac)LLPHIR (SEQ ID NO: 208), 60S acidic ribosomal protein P0 [77], RPLP0)?
**A.** −0.48

**Q.** And the “light to heavy ratio (L/H ratio) of acetylated peptide, log 2 scale” value (GIVK(ac)DIIHDPGR (SEQ ID NO: 207), 60S ribosomal protein L8 [46], RPL8)?
**A.** −0.54

**Q.** And the “light to heavy ratio (L/H ratio) of acetylated peptide, log 2 scale” value (GLFIIDDK(ac)GILR (SEQ ID NO: 197), Peroxiredoxin-1 [136], PRDX1)?
**A.** −0.77

**Q.** And the “light to heavy ratio (L/H ratio) of acetylated peptide, log 2 scale” value (GLSSLLYGSIPK(ac)AAVR (SEQ ID NO: 220), Tricarboxylate transport protein mitochondrial [97], SLC25A1)?
**A.** 0.44

**Q.** What about the “L/H ratio of acetylated peptide LVK(ac)VWNLANCK (SEQ ID NO: 39)” value (GNB2L1 [175], log 2 scale, drug vs DMSO) of the same molecule?
**A.** −0.70

**Q.** What about the “L/H ratio of acetylated peptide IIVDELK(ac)QEVISTSSK (SEQ ID NO: 38)” value (GNB2L1 [271], log 2 scale, drug vs DMSO) of the same molecule?
**A.** −0.62

**Q.** And the “light to heavy ratio (L/H ratio) of acetylated peptide, log 2 scale” value (GPIGSIGPK(ac)GIPGEDGYR (SEQ ID NO: 146), Isoform 1 of Collagen alpha-3(VI) chain [2052], COL6A3)?
**A.** −0.80

**Q.** And the “L/H ratio of acetylated peptide” value (GSK(ac)K(ac)AVTK (SEQ ID NO: 490), Histone H2B type 2-E [16:17], HIST2H2BE)?
**A.** 0.00 log 2

**Q.** What about the “L/H ratio of acetylated peptide (ac)AHYNFK(ac)K (SEQ ID NO: 40)” value (GTPBP4 [7], log 2 scale, drug vs DMSO) of the same molecule?
**A.** −0.38

**Q.** What about the “light to heavy ratio (L/H ratio) of acetylated peptide, log 2 scale” value (GTVRPANDFNPDADAK(ac)ALR (SEQ ID NO: 130), Annexin A6 [370], ANXA6) of the same molecule?
**A.** 0.44

**Q.** And the “L/H ratio of acetylated peptide” value (GYGFGLIK(ac)LDLK (SEQ ID NO: 465), Voltage-dependent anion-selective channel protein 1 [28], VDAC1)?
**A.** 0.00 log 2

**Q.** And the “light to heavy ratio (L/H ratio) of acetylated peptide, log 2 scale” value (GYLTK(ac)EDLR (SEQ ID NO: 216), Protein S100-A10 [28], S100A10)?
**A.** 1.00

**Q.** And the “light to heavy ratio (L/H ratio) of acetylated peptide (ac)ACGLVASNLNLK(ac)PGECLR (SEQ ID NO: 575)” value (Galectin-1 [13], gene LGALS1, inhibitor:DMSO)?
**A.** 0.00 log 2

**Q.** What about the “light to heavy ratio (L/H ratio) of acetylated peptide ISGASEK(ac)DIVHSGLAYTMER (SEQ ID NO: 543)” value (Glutamate dehydrogenase 1 mitochondrial [503], gene GLUD1, inhibitor:DMSO) of the same molecule?
**A.** 0.00 log 2

**Q.** And the “light to heavy ratio (L/H ratio) of acetylated peptide VVK(ac)QASEGPLK (SEQ ID NO: 597)” value (Glyceraldehyde-3-phosphate dehydrogenase [263], gene GAPDH, inhibitor:DMSO)?
**A.** 0.00 log 2

**Q.** And the “light to heavy ratio (L/H ratio), log 2 scale, acetylated peptide LLLLGAGESGK(ac)STIVK (SEQ ID NO: 769)” value (Guanine nucleotide-binding protein G(olf) subunit alpha [55], gene GNAL, drug:DMSO)?
**A.** 0.00

**Q.** What about the “L/H ratio of acetylated peptide AGGK(ac)AGK(ac)DSGK (SEQ ID NO: 15)” value (H2AFV [5:8], log 2 scale, drug vs DMSO) of the same molecule?
**A.** 0.47

**Q.** And the “L/H ratio of acetylated peptide GQQQVFK(ac)GLNDK (SEQ ID NO: 41)” value (HADHA [406], log 2 scale, drug vs DMSO)?
**A.** 0.46

**Q.** And the “L/H ratio of acetylated peptide EPVAVLK(ac)ANR (SEQ ID NO: 9)” value (HEXB [161], log 2 scale, drug vs DMSO)?
**A.** −0.58

**Q.** What about the “light to heavy ratio (L/H ratio) of acetylated peptide, log 2 scale” value (HIK(ac)ENDYYTPTGEFR (SEQ ID NO: 227), Dolichyl-diphosphooligosaccharide--protein glycosyltransferase subunit STT3A [613], STT3A) of the same molecule?
**A.** −0.44

**Q.** And the “L/H ratio of acetylated peptide PDPAK(ac)SAPAPK(ac)K (SEQ ID NO: 16)” value (HIST1H2BO [6:12], log 2 scale, drug vs DMSO)?
**A.** 0.47

**Q.** And the “light to heavy ratio (L/H ratio) of acetylated peptide, log 2 scale” value (HK(ac)DIDILIVR (SEQ ID NO: 178), Isocitrate dehydrogenase [NAD] subunit gamma mitochondrial [159], IDH3G)?
**A.** −1.00

**Q.** And the “light to heavy ratio (L/H ratio) of acetylated peptide SLNLK(ac)HIK (SEQ ID NO: 607)” value (HLA-B associated transcript 1 [188], gene SNORD84, DDX39B, inhibitor:DMSO)?
**A.** 0.00 log 2

**Q.** And the “L/H ratio of acetylated peptide K(ac)HPDSSVNFAEFSK (SEQ ID NO: 42)” value (HMGB2 [30], log 2 scale, drug vs DMSO)?
**A.** −0.48

**Q.** And the “L/H ratio of acetylated peptide RGEEGHDPK(ac)EPEQLR (SEQ ID NO: 43)” value (HNRNPA3 [29], log 2 scale, drug vs DMSO)?
**A.** −0.45

**Q.** What about the “L/H ratio of acetylated peptide AFITNIPFDVK(ac)WQSLK (SEQ ID NO: 44)” value (HNRNPM [83], log 2 scale, drug vs DMSO) of the same molecule?
**A.** −0.48

**Q.** What about the “L/H ratio of acetylated peptide AAEVLNK(ac)HSLSGRPLK (SEQ ID NO: 3)” value (HNRNPM [134], log 2 scale, drug vs DMSO) of the same molecule?
**A.** −0.87

**Q.** And the “L/H ratio of acetylated peptide VK(ac)VLFVR (SEQ ID NO: 45)” value (HNRNPR [341], log 2 scale, drug vs DMSO)?
**A.** −0.77

**Q.** What about the “L/H ratio of acetylated peptide GYFEYIEENK(ac)YSR (SEQ ID NO: 46)” value (HNRNPU [246], log 2 scale, drug vs DMSO) of the same molecule?
**A.** −0.60

**Q.** What about the “L/H ratio of acetylated peptide TTWVTK(ac)HAAENPGK (SEQ ID NO: 47)” value (HNRNPU [497], log 2 scale, drug vs DMSO) of the same molecule?
**A.** −0.56

**Q.** And the “L/H ratio of acetylated peptide NK(ac)EIFLR (SEQ ID NO: 52)” value (HSP90B1 [97], log 2 scale, drug vs DMSO)?
**A.** −1.00

**Q.** And the “L/H ratio of acetylated peptide […](ac)IR (SEQ ID NO: 49)” value (HSP90B1 [114], log 2 scale, drug vs DMSO)?
**A.** −0.53

**Q.** And the “L/H ratio of acetylated peptide EELVK(ac)NLGTIAK (SEQ ID NO: 48)” value (HSP90B1 [161], log 2 scale, drug vs DMSO)?
**A.** −0.60

**Q.** And the “L/H ratio of acetylated peptide ETLQQHK(ac)LLK (SEQ ID NO: 50)” value (HSP90B1 [455], log 2 scale, drug vs DMSO)?
**A.** −0.74

**Q.** What about the “L/H ratio of acetylated peptide IADDK(ac)YNDTFWK (SEQ ID NO: 51)” value (HSP90B1 [479], log 2 scale, drug vs DMSO) of the same molecule?
**A.** −0.78

**Q.** And the “L/H ratio of acetylated peptide NQLTSNPENTVFDAK(ac)R (SEQ ID NO: 54)” value (HSPA5 [96], log 2 scale, drug vs DMSO)?
**A.** −0.74

**Q.** What about the “L/H ratio of acetylated peptide […](ac)R (SEQ ID NO: 53)” value (HSPA5 [213], log 2 scale, drug vs DMSO) of the same molecule?
**A.** −0.54

**Q.** And the “L/H ratio of acetylated peptide […](ac)R (SEQ ID NO: 55)” value (HSPA8 [71], log 2 scale, drug vs DMSO)?
**A.** −0.48

**Q.** And the “light to heavy ratio (L/H ratio) of acetylated peptide NQVALNPQNTVFDAK(ac)R (SEQ ID NO: 267)” value (Heat shock 70 kDa protein 1A/1B [71], HSPA1B, HSPA1A, drug:DMSO)?
**A.** 0.59 log 2
